# Experimental data taken from ChEMBL document CHEMBL3871284, “Structure-activity relationship-based screening of antibiotics against Gram-negative Acinetobacter baumannii” (Bioorg Med Chem, 2017).
# Calls of active or inactive are those of the source. The rule behind the calls is not given here.
# Experiments:
# Staphylococcus aureus [1] = assay: Antimicrobial activity against Staphylococcus aureus after 16 hrs by broth microdilution assay; format: functional
# Pseudomonas aeruginosa [2] = assay: Antimicrobial activity against multidrug resistant Pseudomonas aeruginosa CCARM 2163 after 16 hrs by broth microdilution assay; format: functional; conditions: CCARM 2163, 16 h
# [3] = test system: Staphylococcus epidermidis; assay: Antimicrobial activity against Staphylococcus epidermidis after 16 hrs by broth microdilution assay; format: functional
# Escherichia coli [4] = assay: Antimicrobial activity against multidrug resistant Escherichia coli CCARM 1229 after 16 hrs by broth microdilution assay; format: functional; conditions: CCARM 1229, 16 h
# [5] = Binding affinity to Acinetobacter baumannii His-tagged KAS3 expressed in Escherichia coli BL21(DE3) by isothermal titration calorimetry assay
# Staphylococcus aureus [6] = assay: Antimicrobial activity against Methicillin-resistant Staphylococcus aureus 3126 after 16 hrs by broth microdilution assay; format: functional; conditions: Staphylococcus aureus, 3126, 16 h
# Pseudomonas aeruginosa [7] = assay: Antimicrobial activity against multidrug resistant Pseudomonas aeruginosa CCARM 2002 after 16 hrs by broth microdilution assay; format: functional; conditions: CCARM 2002, 16 h
# [8] = Antiinflammatory activity in mouse RAW264.7 cells assessed as inhibition of LPS-stimulated MIP2 mRNA expression at 10 uM after 3 hrs in presence of LPS by RT-PCR analysis; format: functional; conditions: RAW264.7, 3 h
# Acinetobacter baumannii [9] = assay: Antimicrobial activity against multidrug resistant Acinetobacter baumannii CCARM 12005 after 16 hrs by broth microdilution assay; format: functional; conditions: CCARM 12005, 16 h
# Acinetobacter baumannii [10] = assay: Antimicrobial activity against multidrug resistant Acinetobacter baumannii CCARM 12036 after 16 hrs by broth microdilution assay; format: functional; conditions: CCARM 12036, 16 h
# [11] = Binding affinity to Acinetobacter baumannii His-tagged KAS3 expressed in Escherichia coli BL21(DE3) by tryptophan emission assay
# [12] = Antiinflammatory activity in mouse RAW264.7 cells assessed as inhibition of LPS-stimulated TNFalpha mRNA expression at 10 uM after 3 hrs in presence of LPS by RT-PCR analysis; format: functional; conditions: RAW264.7, 3 h
# Acinetobacter baumannii [13] = assay: Antimicrobial activity against multidrug resistant Acinetobacter baumannii CCARM 12037 after 16 hrs by broth microdilution assay; format: functional; conditions: CCARM 12037, 16 h
# Staphylococcus aureus [14] = assay: Antimicrobial activity against Methicillin-resistant Staphylococcus aureus isolate 3114 after 16 hrs by broth microdilution assay; format: functional; conditions: isolate 3114, 16 h
# [15] = Antiinflammatory activity in mouse RAW264.7 cells assessed as inhibition of LPS-stimulated IL6 mRNA expression at 10 uM after 3 hrs in presence of LPS by RT-PCR analysis; format: functional; conditions: RAW264.7, 3 h
# Escherichia coli [16] = assay: Antimicrobial activity against multidrug resistant Escherichia coli CCARM 1238 after 16 hrs by broth microdilution assay; format: functional; conditions: CCARM 1238, 16 h
# [17] = Antiinflammatory activity in mouse RAW264.7 cells assessed as inhibition of LPS-stimulated MIP1 mRNA expression at 10 uM after 3 hrs in presence of LPS by RT-PCR analysis; format: functional; conditions: RAW264.7, 3 h
# Pseudomonas aeruginosa [18] = assay: Antimicrobial activity against multidrug resistant Pseudomonas aeruginosa CCARM 2095 after 16 hrs by broth microdilution assay; format: functional; conditions: CCARM 2095, 16 h
# [19] = Antiinflammatory activity in mouse RAW264.7 cells assessed as inhibition of LPS-stimulated IL1beta mRNA expression at 10 uM after 3 hrs in presence of LPS by RT-PCR analysis; format: functional; conditions: RAW264.7, 3 h
# Acinetobacter baumannii [20] = assay: Antimicrobial activity against Acinetobacter baumannii KCTC 2508 after 16 hrs by broth microdilution assay; format: functional; conditions: KCTC 2508, 16 h
# Bacillus subtilis = assay: Antimicrobial activity against Bacillus subtilis after 16 hrs by broth microdilution assay; format: functional
# [21] = Antiinflammatory activity in mouse RAW264.7 cells assessed as inhibition of LPS-stimulated iNOS mRNA expression at 10 uM after 3 hrs in presence of LPS by RT-PCR analysis; format: functional; conditions: RAW264.7, 3 h
# Acinetobacter baumannii [22] = assay: Antimicrobial activity against multidrug resistant Acinetobacter baumannii CCARM 12035 after 16 hrs by broth microdilution assay; format: functional; conditions: CCARM 12035, 16 h
# RAW264.7 = assay: Antiinflammatory activity in mouse RAW264.7 cells assessed as inhibition of LPS-stimulated NO production at 10 to 20 uM after 24 hrs in presence of LPS; format: functional, cell-based
# Pseudomonas aeruginosa [23] = assay: Antimicrobial activity against Pseudomonas aeruginosa KCTC 1637 after 16 hrs by broth microdilution assay; format: functional; conditions: KCTC 1637, 16 h
# Escherichia coli [24] = assay: Antimicrobial activity against Escherichia coli KCTC 1682 after 16 hrs by broth microdilution assay; format: functional; conditions: KCTC 1682, 16 h
Compound,MIC (Staphylococcus aureus [1]) [µg/mL],MIC (Pseudomonas aeruginosa [2]) [µg/mL],MIC [3] [µg/mL],MIC (Escherichia coli [4]) [µg/mL],Kd [5] [nM],MIC (Staphylococcus aureus [6]) [µg/mL],MIC (Pseudomonas aeruginosa [7]) [µg/mL],inhibition at 10 µM [8] [%],MIC (Acinetobacter baumannii [9]) [µg/mL],MIC (Acinetobacter baumannii [10]) [µg/mL],Kd [11] [nM],inhibition at 10 µM [12] [%],MIC (Acinetobacter baumannii [13]) [µg/mL],MIC (Staphylococcus aureus [14]) [µg/mL],inhibition at 10 µM [15] [%],MIC (Escherichia coli [16]) [µg/mL],inhibition at 10 µM [17] [%],MIC (Pseudomonas aeruginosa [18]) [µg/mL],inhibition at 10 µM [19] [%],MIC (Acinetobacter baumannii [20]) [µg/mL],other results
Cc1ccc(/C=N/NCc2ccc(O)cc2O)cc1Cl,8,32,8,> 32,197,> 32,> 32,> 70,4,2,916,> 70,2,32,50.6,> 32,> 70,32,10.3,2,MIC (Bacillus subtilis): 16 µg/mL; inhibition at 10 µM [21]: > 70%; MIC (Acinetobacter baumannii [22]): 2 µg/mL; inhibition (RAW264.7): Active; MIC (Pseudomonas aeruginosa [23]): 4 µg/mL; MIC (Escherichia coli [24]): 32 µg/mL
Oc1ccc(/C=N/NCc2cccc(C(F)(F)F)c2)cc1,32,> 32,32,> 32,127,> 32,> 32,> 70,16,16,220,> 70,16,> 32,50.6,> 32,> 70,> 32,63.5,8,MIC (Bacillus subtilis): 32 µg/mL; inhibition at 10 µM [21]: > 70%; MIC (Acinetobacter baumannii [22]): 16 µg/mL; inhibition (RAW264.7): Active; MIC (Pseudomonas aeruginosa [23]): 32 µg/mL; MIC (Escherichia coli [24]): 32 µg/mL
